Experimental data from PubChem BioAssay AID588462 (The Scripps Research Institute Molecular Screening Center, 2011).
The source made the active and inactive calls. No rule for the calls is given here.

Columns and labels:
Experiment in all cases: PAD1-3 enzyme inhibition potency, late-stage follow-up, biochemical, colorimetric, BAEE substrate, recombinant PAD1-3 (AID 588462)
[1] = biological target: Protein-arginine deiminase type-1 (Homo sapiens) (UniProt Q9ULC6); conditions: recombinant PAD1-3, BAEE citrullination, colorimetric absorbance; PAD1
[2] = biological target: Protein-arginine deiminase type-3 (Homo sapiens) (UniProt Q9ULW8); conditions: recombinant PAD1-3, BAEE citrullination, colorimetric absorbance; PAD3
[3] = biological target: Protein-arginine deiminase type-2 (Homo sapiens) (UniProt Q9Y2J8); conditions: recombinant PAD1-3, BAEE citrullination, colorimetric absorbance; PAD2
Chain of Protein-arginine deiminase type-2 (Homo sapiens) (Q9Y2J8 whole entry, looked up): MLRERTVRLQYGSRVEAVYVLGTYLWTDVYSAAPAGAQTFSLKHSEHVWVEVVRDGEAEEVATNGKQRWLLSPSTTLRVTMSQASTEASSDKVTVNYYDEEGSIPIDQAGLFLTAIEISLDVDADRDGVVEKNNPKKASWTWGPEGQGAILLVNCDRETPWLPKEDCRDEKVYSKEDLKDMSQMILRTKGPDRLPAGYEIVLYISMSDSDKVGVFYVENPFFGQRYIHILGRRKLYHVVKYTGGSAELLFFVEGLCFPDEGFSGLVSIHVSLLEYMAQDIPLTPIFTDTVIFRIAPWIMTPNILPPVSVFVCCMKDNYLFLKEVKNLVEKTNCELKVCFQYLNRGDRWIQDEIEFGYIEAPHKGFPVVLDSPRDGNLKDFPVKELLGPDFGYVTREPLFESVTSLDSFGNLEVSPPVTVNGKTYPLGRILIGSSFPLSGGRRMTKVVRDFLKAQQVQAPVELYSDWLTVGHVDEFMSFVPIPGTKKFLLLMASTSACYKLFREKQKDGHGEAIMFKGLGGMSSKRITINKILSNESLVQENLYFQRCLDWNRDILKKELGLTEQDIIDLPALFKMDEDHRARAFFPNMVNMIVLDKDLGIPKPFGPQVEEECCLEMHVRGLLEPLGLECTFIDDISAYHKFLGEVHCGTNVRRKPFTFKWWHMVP

Chain of Protein-arginine deiminase type-3 (Homo sapiens) (Q9ULW8 whole entry, looked up): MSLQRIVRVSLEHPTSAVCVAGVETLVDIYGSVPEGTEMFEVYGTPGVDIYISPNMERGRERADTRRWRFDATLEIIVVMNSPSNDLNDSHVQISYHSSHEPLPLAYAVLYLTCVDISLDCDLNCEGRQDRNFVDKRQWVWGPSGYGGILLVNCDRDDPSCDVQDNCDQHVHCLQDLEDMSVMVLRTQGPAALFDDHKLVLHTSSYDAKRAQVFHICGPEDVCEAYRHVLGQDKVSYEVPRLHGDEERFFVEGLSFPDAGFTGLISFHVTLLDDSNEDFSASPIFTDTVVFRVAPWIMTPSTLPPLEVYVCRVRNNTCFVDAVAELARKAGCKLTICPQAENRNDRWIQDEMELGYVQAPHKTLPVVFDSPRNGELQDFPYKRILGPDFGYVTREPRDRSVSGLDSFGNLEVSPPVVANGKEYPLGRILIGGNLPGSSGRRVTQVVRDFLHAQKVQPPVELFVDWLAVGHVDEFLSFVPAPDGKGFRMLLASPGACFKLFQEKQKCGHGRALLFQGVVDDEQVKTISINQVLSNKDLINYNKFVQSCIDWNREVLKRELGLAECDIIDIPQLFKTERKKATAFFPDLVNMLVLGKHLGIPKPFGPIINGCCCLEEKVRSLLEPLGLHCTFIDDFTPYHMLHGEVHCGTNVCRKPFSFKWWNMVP
Chain of Protein-arginine deiminase type-1 (Homo sapiens) (Q9ULC6 whole entry, looked up): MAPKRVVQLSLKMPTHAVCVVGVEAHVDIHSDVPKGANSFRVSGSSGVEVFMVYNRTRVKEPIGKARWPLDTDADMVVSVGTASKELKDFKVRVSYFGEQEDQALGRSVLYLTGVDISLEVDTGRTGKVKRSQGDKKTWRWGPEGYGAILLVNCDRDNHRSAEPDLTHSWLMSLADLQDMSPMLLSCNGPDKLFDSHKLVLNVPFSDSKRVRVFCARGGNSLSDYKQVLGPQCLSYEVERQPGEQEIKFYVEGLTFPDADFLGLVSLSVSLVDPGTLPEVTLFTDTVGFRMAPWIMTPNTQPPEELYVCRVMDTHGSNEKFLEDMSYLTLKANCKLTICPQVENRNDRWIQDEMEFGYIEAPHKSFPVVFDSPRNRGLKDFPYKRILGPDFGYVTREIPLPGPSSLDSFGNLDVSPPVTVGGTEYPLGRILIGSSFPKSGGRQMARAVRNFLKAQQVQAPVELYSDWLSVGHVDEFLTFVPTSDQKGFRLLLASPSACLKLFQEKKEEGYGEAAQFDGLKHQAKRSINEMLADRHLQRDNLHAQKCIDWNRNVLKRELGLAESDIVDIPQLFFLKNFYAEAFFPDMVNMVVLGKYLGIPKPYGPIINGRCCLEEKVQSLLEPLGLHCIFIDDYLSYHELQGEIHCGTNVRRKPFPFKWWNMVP

IC50 [1]: inactive
IC50 [2]: 430 nM
IC50 [3]: inactive
Structure (SMILES): COC1=C(N)C(=O)c2nc(-c3nc(C(=O)O)c(C)c(-c4ccc(OC)c(OC)c4O)c3N)ccc2C1=O
